These results are taken from publication PMC4519791, “Functional diversity and properties of multiple xylanases from Penicillium oxalicum GZ-2” (Scientific Reports, 2015).

Type in all cases: biochemical
The target in one assay is T1, xyn10A (Penicillium oxalicum, UniProt U3N115).
T1 construct: mature enzyme, GH10 catalytic domain without CBM; pPICZalphaA alpha-factor secretion, 6xHis tag, Pichia pastoris, Ni-NTA
Description: TLC of hydrolysis products. The settings on record: 1 mg/ml substrate, 12 h; 50 mM acetate pH 4.0, 40 °C (Figure 7 legend) or optimal pH, 45 °C (Methods).

The target in another assay is T2, xyn11A (Penicillium oxalicum, UniProt U3MZH8).
T2 construct: GH11 catalytic domain without CBM; 23 kDa by SDS-PAGE; pPICZalphaA alpha-factor secretion, 6xHis tag, Pichia pastoris, Ni-NTA
T2 sequence (U3MZH8 17-211): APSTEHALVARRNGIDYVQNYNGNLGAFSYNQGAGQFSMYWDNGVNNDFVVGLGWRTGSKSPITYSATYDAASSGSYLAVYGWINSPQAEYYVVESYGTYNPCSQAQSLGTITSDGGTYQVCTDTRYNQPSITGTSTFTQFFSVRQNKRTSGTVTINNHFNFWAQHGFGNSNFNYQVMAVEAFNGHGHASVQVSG
Description: TLC of hydrolysis products. The settings on record: 1 mg/ml substrate, 12 h; 50 mM acetate pH 4.0, 40 °C (Figure 7 legend) or optimal pH, 45 °C (Methods).

Another assay addresses T3, xyn11B (Penicillium oxalicum, UniProt E7EF85).
T3 construct: gene xynB; mature enzyme, GH11 catalytic domain, Ser/Thr linker and CBM1; pPICZalphaA alpha-factor secretion, 6xHis tag, Pichia pastoris, Ni-NTA
Kind of assay: TLC of hydrolysis products. To be noted: 1 mg/ml substrate, 12 h; 50 mM acetate pH 4.0, 40 °C (Figure 7 legend) or optimal pH, 45 °C (Methods).

In another assay the target is T4, xyn10B (Penicillium oxalicum, UniProt U3MZ77).
T4 construct: mature enzyme, GH10 catalytic domain, Ser/Thr linker and CBM1; pPICZalphaA alpha-factor secretion, 6xHis tag, Pichia pastoris, Ni-NTA
T4 sequence (U3MZ77 23-410): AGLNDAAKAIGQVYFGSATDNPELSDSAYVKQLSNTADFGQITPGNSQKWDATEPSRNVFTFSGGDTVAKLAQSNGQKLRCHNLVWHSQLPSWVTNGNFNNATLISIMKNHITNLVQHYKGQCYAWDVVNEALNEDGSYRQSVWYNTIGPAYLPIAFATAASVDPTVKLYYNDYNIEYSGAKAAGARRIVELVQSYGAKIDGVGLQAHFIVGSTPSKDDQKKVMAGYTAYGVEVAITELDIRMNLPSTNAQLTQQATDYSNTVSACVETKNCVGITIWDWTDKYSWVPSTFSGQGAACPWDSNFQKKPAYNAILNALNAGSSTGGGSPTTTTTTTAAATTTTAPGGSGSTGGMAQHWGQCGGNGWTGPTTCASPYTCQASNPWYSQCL
Description: p-nitrophenyl substrate hydrolysis (specific activity). To be noted: 10 mM substrate; optimal temperature, pH 5.0.

T3 sequence (E7EF85 20-310): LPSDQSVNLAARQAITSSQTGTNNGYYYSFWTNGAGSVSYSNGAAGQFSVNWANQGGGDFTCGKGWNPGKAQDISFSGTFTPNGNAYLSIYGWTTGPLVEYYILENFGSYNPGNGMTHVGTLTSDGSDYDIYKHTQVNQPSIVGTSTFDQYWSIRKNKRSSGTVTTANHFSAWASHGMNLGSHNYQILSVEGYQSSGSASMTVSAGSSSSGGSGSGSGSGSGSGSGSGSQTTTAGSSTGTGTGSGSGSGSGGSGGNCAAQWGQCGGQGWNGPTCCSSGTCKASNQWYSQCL
T1 sequence (U3N115 20-330): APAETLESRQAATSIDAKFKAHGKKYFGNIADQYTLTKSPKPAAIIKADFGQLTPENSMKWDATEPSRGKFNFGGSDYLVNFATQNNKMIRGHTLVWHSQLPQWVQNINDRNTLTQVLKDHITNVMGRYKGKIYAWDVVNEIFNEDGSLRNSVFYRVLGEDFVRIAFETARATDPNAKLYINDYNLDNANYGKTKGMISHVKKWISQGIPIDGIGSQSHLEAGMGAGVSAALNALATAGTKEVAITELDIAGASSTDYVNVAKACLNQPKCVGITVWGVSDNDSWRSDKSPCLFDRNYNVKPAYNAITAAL

With `OC1OC[C@@H](O[C@@H]2OC[C@@H](O[C@@H]3OC[C@@H](O)[C@H](O)[C@H]3O)[C@H](O)[C@H]2O)[C@H](O)[C@H]1O` (some centres unmarked) [X3, xylotriose], the “TLC of hydrolysis products” value on xyn10A is “the two GH10 enzymes rapidly degraded X3, X4, X5 and X6”.
`OC1CO[C@@H](OC2CO[C@@H](OC3CO[C@@H](OC4CO[C@@H](OC5CO[C@@H](OC6COC(O)C(O)C6O)C(O)C5O)C(O)C4O)C(O)C3O)C(O)C2O)C(O)C1O` (some centres unmarked) [X6, xylohexaose]: the “TLC of hydrolysis products” value is “X4, X5 and X6 were hydrolyzed to X2 and X3 through xyn11A” at xyn11A; “hydrolytic products obtained with GH11 xylanase (xyn11B) was similar to that of xyn11A” on xyn11B; “the two GH10 enzymes rapidly degraded X3, X4, X5 and X6” at xyn10A.
As for `OC1OC[C@@H](O[C@@H]2OC[C@@H](O[C@@H]3OC[C@@H](O[C@@H]4OC[C@@H](O)[C@H](O)[C@H]4O)[C@H](O)[C@H]3O)[C@H](O)[C@H]2O)[C@H](O)[C@H]1O` (some centres unmarked) [X4, xylotetraose], the “TLC of hydrolysis products” value on xyn11A was “X4, X5 and X6 were hydrolyzed to X2 and X3 through xyn11A”; on xyn11B, “hydrolytic products obtained with GH11 xylanase (xyn11B) was similar to that of xyn11A”.
Regarding `O=[N+]([O-])c1ccc(O[C@@H]2OC[C@@H](O)[C@H](O)[C@H]2O)cc1` [pNPX, p-nitrophenyl-β-D-xylopyranoside], the “p-nitrophenyl substrate hydrolysis (specific activity)” value on xyn10B was “Although xyn10B degraded pNPX and pNPC, the other three enzymes were not active”.
The same measure, in the same setting: as for `O=[N+]([O-])c1ccc(O[C@@H]2O[C@H](CO)[C@@H](O[C@@H]3O[C@H](CO)[C@@H](O)[C@H](O)[C@H]3O)[C@H](O)[C@H]2O)cc1` [pNPC, p-nitrophenyl β-D-cellobioside], the entry is “Although xyn10B degraded pNPX and pNPC, the other three enzymes were not active”.
